Literature values in patent US5047425A, “Amine derivatives having cardiovascular activity” (Simes Societa Italiana Medicinali & Sintetici SpA, priority 1987, dated 1991).

Conditions: literature: McKenna 1966; Whitsitt 1967; cited from earlier work

CC(C)NCC(O)COc1cccc2ccccc12 (centres unmarked) [Propranolol]
cardiac output: depresses at the same time the cardiac output
coronary flow: depresses at the same time the cardiac output and the coronary flow
